Measurements from patent publication US20230146395A1, “Substituted Pyrimidines and Uses Thereof” (Verge Analytics, Inc., priority 2020, published 2023).
Where a name gives a salt, the structure may show the parent alone.

Key:
[1] = biological target: T1, Full length human recombinant PIKFYVE (Homo sapiens, UniProt Q9Y2I7); assay: Inhibition of PIKfyve (microfluidic electrophoresis kinase assay, PI3P/PS substrate); format: biochemical; details: 12 concentrations
T1 construct: Full length human recombinant PIKFYVE; purchased Carna Biosciences (Kobe, Japan); host or cells: baculovirus expression system
T1 sequence (Q9Y2I7 whole entry): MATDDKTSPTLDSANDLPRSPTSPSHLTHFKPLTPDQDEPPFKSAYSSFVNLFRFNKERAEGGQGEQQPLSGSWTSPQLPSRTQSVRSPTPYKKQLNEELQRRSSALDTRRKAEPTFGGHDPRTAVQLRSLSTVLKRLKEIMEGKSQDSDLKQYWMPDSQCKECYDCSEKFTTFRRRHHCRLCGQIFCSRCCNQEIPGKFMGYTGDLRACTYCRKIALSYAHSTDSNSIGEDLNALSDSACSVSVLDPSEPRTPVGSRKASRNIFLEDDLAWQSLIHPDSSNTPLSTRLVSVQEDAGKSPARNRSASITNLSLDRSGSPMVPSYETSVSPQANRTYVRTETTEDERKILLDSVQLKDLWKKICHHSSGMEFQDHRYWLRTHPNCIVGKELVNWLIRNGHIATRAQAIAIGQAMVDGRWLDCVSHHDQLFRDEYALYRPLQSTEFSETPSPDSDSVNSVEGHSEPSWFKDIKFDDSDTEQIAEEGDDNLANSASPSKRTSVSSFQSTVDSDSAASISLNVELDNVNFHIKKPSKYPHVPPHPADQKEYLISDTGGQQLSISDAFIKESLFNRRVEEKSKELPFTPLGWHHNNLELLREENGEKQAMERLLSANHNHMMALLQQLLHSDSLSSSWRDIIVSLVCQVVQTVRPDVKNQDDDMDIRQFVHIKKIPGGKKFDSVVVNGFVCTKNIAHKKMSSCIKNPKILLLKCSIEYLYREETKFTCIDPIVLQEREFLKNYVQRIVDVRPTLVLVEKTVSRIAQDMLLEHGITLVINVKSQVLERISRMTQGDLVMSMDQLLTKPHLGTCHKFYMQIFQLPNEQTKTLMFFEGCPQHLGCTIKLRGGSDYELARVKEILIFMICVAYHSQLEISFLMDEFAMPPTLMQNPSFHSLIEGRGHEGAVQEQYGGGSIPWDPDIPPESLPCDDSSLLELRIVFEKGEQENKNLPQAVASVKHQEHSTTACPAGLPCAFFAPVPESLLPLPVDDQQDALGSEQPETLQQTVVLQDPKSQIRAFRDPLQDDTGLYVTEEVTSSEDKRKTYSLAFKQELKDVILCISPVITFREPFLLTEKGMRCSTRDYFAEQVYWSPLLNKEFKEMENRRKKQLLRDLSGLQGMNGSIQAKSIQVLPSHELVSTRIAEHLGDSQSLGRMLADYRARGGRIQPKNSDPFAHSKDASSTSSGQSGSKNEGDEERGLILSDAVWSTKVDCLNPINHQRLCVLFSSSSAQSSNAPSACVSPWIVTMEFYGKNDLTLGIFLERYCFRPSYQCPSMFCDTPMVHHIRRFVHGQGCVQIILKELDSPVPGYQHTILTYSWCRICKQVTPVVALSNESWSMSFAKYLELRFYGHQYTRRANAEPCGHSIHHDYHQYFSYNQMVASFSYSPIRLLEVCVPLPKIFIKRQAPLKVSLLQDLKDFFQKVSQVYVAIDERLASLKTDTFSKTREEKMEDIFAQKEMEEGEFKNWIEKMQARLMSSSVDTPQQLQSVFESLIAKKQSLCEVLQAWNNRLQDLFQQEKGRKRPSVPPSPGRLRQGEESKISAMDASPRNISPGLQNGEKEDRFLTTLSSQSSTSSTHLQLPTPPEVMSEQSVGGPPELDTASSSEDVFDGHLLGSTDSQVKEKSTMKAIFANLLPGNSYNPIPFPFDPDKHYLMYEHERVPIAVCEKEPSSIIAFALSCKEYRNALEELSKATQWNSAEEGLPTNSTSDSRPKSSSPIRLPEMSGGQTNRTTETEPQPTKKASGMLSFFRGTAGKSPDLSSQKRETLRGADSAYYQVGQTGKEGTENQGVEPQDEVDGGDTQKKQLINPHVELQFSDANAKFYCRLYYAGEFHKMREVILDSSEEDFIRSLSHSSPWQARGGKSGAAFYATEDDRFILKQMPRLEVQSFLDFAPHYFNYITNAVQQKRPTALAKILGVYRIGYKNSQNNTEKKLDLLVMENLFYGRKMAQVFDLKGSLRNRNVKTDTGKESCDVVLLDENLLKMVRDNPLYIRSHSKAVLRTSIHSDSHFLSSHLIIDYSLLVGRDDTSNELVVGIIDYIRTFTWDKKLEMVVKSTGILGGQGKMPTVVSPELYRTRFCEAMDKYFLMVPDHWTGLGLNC
Summary of the method: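 Percent inhibition, from 12 concentrations, was derived from the product/(substrate+product) peak ratio separated by microfluidic electrophoresis, normalized to DMSO-only and enzyme-free controls. Reactions ran 3 h at room temperature: 2 nM N-terminal GST-PIKFYVE, 1 μM fluorescent PI3P in PS vesicles, […], HEPES pH 7.5, MgCl2/MnCl2.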

[2] = test system: HEK 293T transfected with plasmids containing TDP-43 Q331K mutation; assay: HEK/TDP Survival assay (Cell-Titer-Glo, 48 hrs, maximal effect of rescue); format: cell-based; details: Homo sapiens, HEK 293T with TDP-43 Q331K, (n) in brackets
Procedure: HEK/TDP Survival assay: Immortalized human embryonic kidney 293T (HEK 293T) were transfected with plasmids containing TDP-43 Q331K mutation, resulting in an increase in cell death that is biologically relevant to ALS patients. Cell death is measured as reductions in the amount of ATP, an indicator of metabolically active cells, that is quantified by a luminescence Cell-Titer-Glo® (CTG) reagent. Compounds are evaluated in this model for changes in CTG compared to a no treatment group. Increased signal indicates improved survival (rescue) and decreased signal indicates decreased survival.
Cell rescue was measured in a 96-well format with eight different concentrations of the test compound over 48 hours (hrs) with 6 replicates. The Promega Cell-Titer-Glo® Luminescent Cell Viability Assay was used to quantify ATP, an indicator of metabolically active cells (see protocol: https://www.promega.com/-/media/files/resources/protocols/technical-manuals/101/celltiterglo-2-0-assay-protocol.pdf?la=en). The luminescence signal was detected using the PerkinElmer EnVision or Molecular Devices SpectraMax.
The effect of a compound at a given dose on cell viability was determined using a three step procedure. First, Hedge's g for the Cell Titer-Glo luminescence values using six untreated wells on every plate as a control was calculated. […] Finally, values from all compound-dose pairs were corrected for multiple hypothesis testing using the Empirical Bayes framework of Stephens, M. (False discovery rates: a new deal, Biostatistics, 18 [2], 2017, 275-294) yielding credible intervals for the measured effect and associated s values.
Briefly, this method computes a local false sign rate for each experiment. Analogous to the local false discovery rate of Efron, B. (Size, power and false discovery rates, Ann. Statist. 35 [4], 2007, 1351-1377) this value measures the confidence in the sign of each effect (rather than confidence in each effect being non-zero). The s values reported in the previous figures are the expected fraction of errors if estimating the sign of all effects with greater absolute local false sign rate, defined in analogy to the q value of Storey, JD (The positive false discovery rate: a Bayesian interpretation and the q-value, Ann. Statist. 31 [6] 2003, 2013-2035).
Drugs that yielded signed log s values greater than 3 were considered hits. This threshold was determined by a separate calibration experiment in which Cell Titer-Glo® was measured in blank plates consisting of untreated cells to assess the noise inherent in the assay. Data are presented as the maximal effect of rescue obtained from the dose-response curve.

Compound	IC50 [1]	EC50 [2]
Cc1cccc(-c2cnn(-c3nc(N4CCOCC4)c4oc(C(=O)NCCCN(C)C)cc4n3)c2)c1 [Compound 111, N-(3-(dimethylamino)propyl)-4-morpholino-2-(4-(m-tolyl)-1H-pyrazol-1-yl)furo[3,2-d]pyrimidine-6-carboxamide]	3.1 nM	35.5 nM
Cc1cccc(-c2cnn(-c3nc(N4CCOCC4)c4oc(-c5cc(C)n(CCN(C)C)n5)cc4n3)c2)c1 [Compound 146, N,N-dimethyl-2-(5-methyl-3-(4-morpholino-2-(4-(m-tolyl)-1H-pyrazol-1-yl)furo[3,2-d]pyrimidin-6-yl)-1H-pyrazol-1-yl)ethanamine]	0.3 nM	11 nM
Cc1cccc(-c2ccn(-c3nc(N4CCOCC4)c4oc(C(=O)NCCCN(C)C)cc4n3)n2)c1 [Compound 109, N-(3-(dimethylamino)propyl)-4-morpholino-2-(3-(m-tolyl)-1H-pyrazol-1-yl)furo[3,2-d]pyrimidine-6-carboxamide]	11.7 nM	46.5 nM
Cc1cccc(-c2cnn(-c3nc(N4CCOCC4)c4oc(-c5cc(C)nn5CCN(C)C)cc4n3)c2)c1 [Compound 145, N,N-dimethyl-2-[3-methyl-5-[4-morpholino-2-[4-(m-tolyl)pyrazol-1-yl]furo[3,2-d]pyrimidin-6-yl]pyrazol-1-yl]ethanamine]	18.6 nM	27 nM
COCCNC(=O)c1cc2nc(-n3cc(-c4cccc(C)c4)cn3)nc(N3CCOCC3)c2o1 [Compound 117, N-(2-methoxyethyl)-4-morpholino-2-(4-(m-tolyl)-1H-pyrazol-1-yl)fur[3,2-d]pyrimidine-6-carboxamide]	37.3 nM	74.3 nM
[2H]C1([2H])OC([2H])([2H])C([2H])([2H])N(c2nc(-n3cc(-c4cccc(C)c4)cn3)nc3cc(-c4cccnc4)oc23)C1([2H])[2H] [Compound 132, 4-morpholino (dg)-6-(pyridin-3-yl)-2-(4-(m-tolyl)-1H-pyrazol-1-yl)furo[3,2-d]pyrimidine]	39.9 nM	15 nM
Cc1cccc(-c2cnn(-c3nc(N4CCOCC4)c4oc(C(=O)N[C@@H](C)C5CC5)cc4n3)c2)c1 [Compound 113, (S)-N-(1-cyclopropylethyl)-4-morpholino-2-(4-(m-tolyl)-1H-pyrazol-1-yl)furo[3,2-d]pyrimidine-6-carboxamide]	0.2 nM	16 nM
Cc1cccc(-c2ccn(-c3nc(N4CCOCC4)c4oc(-c5cc(C)no5)cc4n3)n2)c1 [Compound 204, 6-(3-methylisoxazol-5-yl)-4-morpholino-2-(3-(m-tolyl)-1H-pyrazol-1-yl)furo[3,2-d]pyrimidine]	2.1 nM	–
CS(=O)(=O)NC(=O)c1cc2nc(Nc3cc(-c4ccccc4)n[nH]3)nc(N3CCOCC3)c2o1 [Compound 65, N-(methylsulfonyl)-4-morpholino-2-((3-phenyl-1H-pyrazol-5-yl)amino)furo[3,2-d]pyrimidine-6-carboxamide hydrochloride]	235 nM	–
Cc1cccc(-c2ccn(-c3nc(N4CCOCC4)c4oc(-c5cc(C)ns5)cc4n3)n2)c1 [Compound 210, 6-(3-methylisothiazol-5-yl)-4-morpholino-2-[3-(m-tolyl)pyrazol-1-yl]furo[3,2-d]pyrimidine]	3.8 nM	–
Cc1ccc(-c2cc(Nc3nc(N4CCOCC4)c4oc(-c5ccncc5)cc4n3)[nH]n2)cc1 [Compound 4, 4-morpholino-N-[5-(p-tolyl)-1H-pyrazol-3-yl]-6-(4-pyridyl)furo[3,2-d]pyrimidin-2-amine, hydrogen chloride]	30.9 nM	–
c1ccc(-c2cnc(Nc3nc(N4CCOCC4)c4oc(-c5ccncc5)cc4n3)o2)cc1 [Compound 46, 4-morpholino-N-(5-phenyloxazol-2-yl)-6-(4-pyridyl)furo[3,2-d]pyrimidin-2-amine, hydrogen chloride]	107 nM	–
c1ccc(-c2cc(Nc3nc(N4CCOCC4)c4oc(CN5CCOCC5)cc4n3)[nH]n2)cc1 [Compound 12, 4-morpholino-6-(morpholinomethyl)-N-(3-phenyl-1H-pyrazol-5-yl)furo[3,2-d]pyrimidin-2-amine hydrochloride]	116 nM	–
Cc1cncc(-c2ccn(-c3nc(N4CCOCC4)c4oc(-c5ccccn5)cc4n3)n2)c1 [Compound 200, 2-[3-(5-methyl-3-pyridyl)pyrazol-1-yl]-4-morpholino-6-(2-pyridyl)furo[3,2-d]pyrimidine]	3080 nM	–
Cn1ccc(-c2cc3nc(-n4cc(Br)cn4)nc(N4CCOCC4)c3o2)n1 [Compound 194, 2-(4-bromopyrazol-1-yl)-6-(1-methylpyrazol-3-yl)-4-morpholino-furo[3,2-d]pyrimidine]	269 nM	–
C[C@@H](NC(=O)c1cc2nc(Nc3cc(-c4ccccc4)n[nH]3)nc(N3CCOCC3)c2o1)C1CC1 [Compound 64, (R)—N-(1-cyclopropylethyl)-4-morpholino-2-((5-phenyl-1H-pyrazol-3-yl)amino)furo[3,2-d]pyrimidine-6-carboxamide hydrochloride]	0.9 nM	–
Cc1ncc(-c2cc3nc(-n4ccc(-c5ccccc5)n4)nc(N4CCOCC4)c3o2)[nH]1 [Compound 213, 6-(2-methyl-1H-imidazol-5-yl)-4-morpholino-2-(3-phenylpyrazol-1-yl)furo[3,2-d]pyrimidine]	10.6 nM	–
CNC(=O)c1cc2nc(Nc3cc(Cc4ccccc4)n[nH]3)nc(N3CCOCC3)c2o1 [Compound 82]	1390 nM	–
COCCNC(=O)c1cc2nc(Nc3cc(-c4ccccc4)[nH]n3)nc(N3CCOCC3)c2o1 [Compound 140, N-(2-methoxyethyl)-4-morpholino-2-((5-phenyl-1H-pyrazol-3-yl)amino)furo[3,2-d]pyrimidine-6-carboxamide]	43 nM	–
Cc1cc(Nc2nc(N3CCOCC3)c3occc3n2)[nH]n1 [Compound 9, N-(5-methyl-1H-pyrazol-3-yl)-4-morpholino-furo[3,2-d]pyrimidin-2-amine, hydrogen chloride]	> 10000 nM	–
Cc1cccc(-c2cnn(-c3nc(N4CCOCC4)c4oc(-c5ccncc5)cc4n3)c2)c1 [Compound 42, 4-morpholino-6-(pyridin-4-yl)-2-(4-(m-tolyl)-1H-pyrazol-1-yl)furo[3,2-d]pyrimidine]	9 nM	–
Cc1cc(-c2ccn(-c3nc(N4CCOCC4)c4oc(-c5ccccn5)cc4n3)n2)ccn1 [Compound 188, 2-[3-(2-methyl-4-pyridyl)pyrazol-1-yl]-4-morpholino-6-(2-pyridyl)furo[3,2-d]pyrimidine]	2830 nM	–
CNC(=O)c1cc2nc(Nc3cc(C(F)(F)F)n[nH]3)nc(N3CCOCC3)c2o1 [Compound 81, N-methyl-4-morpholino-2-((5-(trifluoromethyl)-1H-pyrazol-3-yl)amino)furo[3,2-d]pyrimidine-6-carboxamide, hydrogen chloride]	≥ 10000 nM	–
COc1cccc(-c2ccn(-c3nc(N4CCOCC4)c4oc(C(=O)NC5CCOCC5)cc4n3)n2)c1 [Compound 221, 2-[3-(3-methoxyphenyl)pyrazol-1-yl]-4-morpholino-N-tetrahydropyran-4-yl-furo[3,2-d]pyrimidine-6-carboxamide]	3.4 nM	–
CN1CCC(c2cc3nc(Nc4cc(-c5ccncc5)n[nH]4)nc(N4CCOCC4)c3o2)CC1 [Compound 34, 6-(1-methylpiperidin-4-yl)-4-morpholino-N-(3-(pyridin-4-yl)-1H-pyrazol-5-yl)furo[3,2-d]pyrimidin-2-amine hydrochloride]	10 nM	–
CNC(=O)c1cc2nc(Nc3cc(C4CC4)n[nH]3)nc(N3CCOCC3)c2o1 [Compound 78, 2-((3-cyclopropyl-1H-pyrazol-5-yl)amino)-N-methyl-4-morpholinofuro[3,2-d]pyrimidine-6-carboxamide hydrochloride]	7850 nM	–
O=C(NCC1CC1)c1cc2nc(-n3cc(-c4ccccc4)cn3)nc(N3CCOCC3)c2o1 [Compound 116, N-(cyclopropylmethy 1)-4-morpholino-2-(4-phenyl-1H-pyrazol-1-yl)furo[3,2-d]pyrimidine-6-carboxamide]	49.3 nM	–
CN(C)C(=O)c1cc2nc(Nc3cc(-c4ccccc4)[nH]n3)nc(N3CCOCC3)c2o1 [Compound 137, N,N-dimethyl-4-morpholino-2-((5-phenyl-1H-pyrazol-3-yl)amino)furo[3,2-d]pyrimidine-6-carboxamide]	95 nM	–
